Data published in PubChem BioAssay (NCI).
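GI50 is the concentration that inhibits growth by half. TGI: concentration producing complete growth inhibition.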

Legend:
Experiment in all cases: growth of human tumour cells (NCI), 384-well format
MOLT-4 leukemia = test system: MOLT-4 leukemia
HL-60(TB) leukemia = test system: HL-60(TB) leukemia
SF-295 CNS = test system: SF-295 CNS
EKVX NSCLC = test system: EKVX NSCLC
DU-145 prostate = test system: DU-145 prostate
RPMI-8226 leukemia = test system: RPMI-8226 leukemia
HT29 colon = test system: HT29 colon
RXF 393 renal = test system: RXF 393 renal
UO-31 renal = test system: UO-31 renal
HCT-116 colon = test system: HCT-116 colon
IGROV1 ovarian = test system: IGROV1 ovarian
SK-MEL-28 melanoma = test system: SK-MEL-28 melanoma
UACC-62 melanoma = test system: UACC-62 melanoma
HOP-62 NSCLC = test system: HOP-62 NSCLC
MDA-MB-435 melanoma = test system: MDA-MB-435 melanoma
UACC-257 melanoma = test system: UACC-257 melanoma
786-0 renal = test system: 786-0 renal
MDA-MB-231 breast = test system: MDA-MB-231 breast
PC-3 prostate = test system: PC-3 prostate
CAKI-1 renal = test system: CAKI-1 renal
KM12 colon = test system: KM12 colon
MCF7 breast = test system: MCF7 breast
SNB-75 CNS = test system: SNB-75 CNS
MDA-MB-468 breast = test system: MDA-MB-468 breast
HOP-92 NSCLC = test system: HOP-92 NSCLC
NCI-H226 lung = test system: NCI-H226 lung
U251 glioblastoma = test system: U251 glioblastoma
NCI-H23 lung = test system: NCI-H23 lung
SN12C renal = test system: SN12C renal
SW-620 colon = test system: SW-620 colon
A498 renal = test system: A498 renal
TK-10 renal = test system: TK-10 renal
HCT-15 colon = test system: HCT-15 colon
OVCAR-4 ovarian = test system: OVCAR-4 ovarian
LOX IMVI melanoma = test system: LOX IMVI melanoma
NCI/ADR-RES ovarian = test system: NCI/ADR-RES ovarian
M14 melanoma = test system: M14 melanoma
SF-268 CNS = test system: SF-268 CNS
OVCAR-3 ovarian = test system: OVCAR-3 ovarian
NCI-H522 lung = test system: NCI-H522 lung
SF-539 CNS = test system: SF-539 CNS
OVCAR-8 ovarian = test system: OVCAR-8 ovarian
OVCAR-5 ovarian = test system: OVCAR-5 ovarian
CCRF-CEM leukemia = test system: CCRF-CEM leukemia
MALME-3M melanoma = test system: MALME-3M melanoma
T-47D breast = test system: T-47D breast
BT-549 breast = test system: BT-549 breast
HS 578T breast = test system: HS 578T breast
ACHN renal = test system: ACHN renal
A549 NSCLC = test system: A549 NSCLC
NCI-H460 NSCLC = test system: NCI-H460 NSCLC
SK-MEL-5 melanoma = test system: SK-MEL-5 melanoma
NCI-H322M lung = test system: NCI-H322M lung
K-562 leukemia = test system: K-562 leukemia
SK-OV-3 ovarian = test system: SK-OV-3 ovarian
HCC-2998 colon = test system: HCC-2998 colon
SNB-19 CNS = test system: SNB-19 CNS

For CS(=O)(=O)OCCCCOS(C)(=O)=O, the GI50 (MOLT-4 leukemia) was 9.66 µM, the TGI (MOLT-4 leukemia) was 21.8 µM and the GI50 (HL-60(TB) leukemia) was 17.7 µM.

In the case of O=C(NCCN1CCOCC1)Nc1nc2ccc(Sc3nnc4ccc(-c5ccc(F)cc5)nn34)cc2s1, the GI50 (SF-295 CNS) is reported as 2.34 µM, the TGI (SF-295 CNS) is reported as 14.3 µM and the GI50 (EKVX NSCLC) is reported as 84 µM. The TGI (EKVX NSCLC) was > 100 µM, the GI50 (DU-145 prostate) was > 100 µM and the TGI (DU-145 prostate) was > 100 µM. It also gave a GI50 (RPMI-8226 leukemia) of 1.18 µM, a TGI (RPMI-8226 leukemia) of 2.58 µM and a GI50 (HT29 colon) of 4.93 µM. For the same compound, the TGI (HT29 colon) was 53.3 µM, the GI50 (RXF 393 renal) was 0.606 µM and the TGI (RXF 393 renal) was 2.18 µM. The GI50 (UO-31 renal) was > 100 µM, the TGI (UO-31 renal) was > 100 µM and the GI50 (HCT-116 colon) was 77 µM. The TGI (HCT-116 colon) was > 100 µM, the GI50 (IGROV1 ovarian) was > 100 µM and the TGI (IGROV1 ovarian) was > 100 µM. It also gave a GI50 (SK-MEL-28 melanoma) of 3 µM, a TGI (SK-MEL-28 melanoma) of 7.53 µM and a GI50 (UACC-62 melanoma) of 4.58 µM. For the same compound, the TGI (UACC-62 melanoma) was 42.3 µM, the GI50 (HOP-62 NSCLC) was 7.49 µM and the TGI (HOP-62 NSCLC) was > 100 µM. The GI50 (MDA-MB-435 melanoma) was > 100 µM, the TGI (MDA-MB-435 melanoma) was > 100 µM and the GI50 (UACC-257 melanoma) was 4.3 µM. For the same compound, the TGI (UACC-257 melanoma) was > 100 µM, the GI50 ([…]-0 renal) was 1.61 µM and the TGI (786-0 renal) was 3.83 µM. The GI50 (MDA-MB-231 breast) was 3.73 µM, the TGI (MDA-MB-231 breast) was > 100 µM and the GI50 (PC-3 prostate) was > 100 µM. The TGI (PC-3 prostate) was > 100 µM, the GI50 (CAKI-1 renal) was 22.6 µM and the TGI (CAKI-1 renal) was > 100 µM. The GI50 (KM12 colon) was 0.452 µM, the TGI (KM12 colon) was > 100 µM and the GI50 (MCF7 breast) was 5.39 µM. For the same compound, the TGI (MCF7 breast) was > 100 µM, the GI50 (SNB-75 CNS) was 3.2 µM and the TGI (SNB-75 CNS) was > 100 µM. It also gave a GI50 (MDA-MB-468 breast) of 2.93 µM, a TGI (MDA-MB-468 breast) of 8.45 µM and a GI50 (HOP-92 NSCLC) of 5.22 µM. The TGI (HOP-92 NSCLC) was > 100 µM, the GI50 (NCI-H226 lung) was 3.04 µM and the TGI (NCI-H226 lung) was > 100 µM. It also gave a GI50 (U251 glioblastoma) of 7.1 µM, a TGI (U251 glioblastoma) of 60.7 µM and a GI50 (NCI-H23 lung) of 13 µM. The TGI (NCI-H23 lung) was > 100 µM, the GI50 (SN12C renal) was > 100 µM and the TGI (SN12C renal) was > 100 µM. For the same compound, the GI50 (SW-620 colon) was > 100 µM, the TGI (SW-620 colon) was > 100 µM and the GI50 (A498 renal) was 6.7 µM. The TGI (A498 renal) was > 100 µM, the GI50 (MOLT-4 leukemia) was 1.74 µM and the TGI (MOLT-4 leukemia) was 3.53 µM. The GI50 (TK-10 renal) was > 100 µM, the TGI (TK-10 renal) was > 100 µM and the GI50 (HCT-15 colon) was 70.6 µM. For the same compound, the TGI (HCT-15 colon) was > 100 µM, the GI50 (OVCAR-4 ovarian) was > 100 µM and the TGI (OVCAR-4 ovarian) was > 100 µM. For the same compound, the GI50 (LOX IMVI melanoma) was 20.7 µM, the TGI (LOX IMVI melanoma) was > 100 µM and the GI50 (NCI/ADR-RES ovarian) was > 100 µM. For the same compound, the TGI (NCI/ADR-RES ovarian) was > 100 µM, the GI50 (M14 melanoma) was > 100 µM and the TGI (M14 melanoma) was > 100 µM. For the same compound, the GI50 (SF-268 CNS) was 2.71 µM, the TGI (SF-268 CNS) was 7 µM and the GI50 (OVCAR-3 ovarian) was > 100 µM. The TGI (OVCAR-3 ovarian) was > 100 µM, the GI50 (NCI-H522 lung) was 17.7 µM and the TGI (NCI-H522 lung) was > 100 µM. For the same compound, the GI50 (SF-539 CNS) was 4.86 µM, the TGI (SF-539 CNS) was > 100 µM and the GI50 (OVCAR-8 ovarian) was > 100 µM. For the same compound, the TGI (OVCAR-8 ovarian) was > 100 µM, the GI50 (OVCAR-5 ovarian) was > 100 µM and the TGI (OVCAR-5 ovarian) was > 100 µM. For the same compound, the GI50 (CCRF-CEM leukemia) was 4.41 µM, the TGI (CCRF-CEM leukemia) was > 100 µM and the GI50 (MALME-3M melanoma) was 3.77 µM. The TGI (MALME-3M melanoma) was 13.3 µM, the GI50 (T-47D breast) was 3.1 µM and the TGI (T-47D breast) was 32.5 µM. For the same compound, the GI50 (BT-549 breast) was 2.85 µM, the TGI (BT-549 breast) was > 100 µM and the GI50 (HS 578T breast) was 2.31 µM. For the same compound, the TGI (HS 578T breast) was 5.35 µM, the GI50 (ACHN renal) was > 100 µM and the TGI (ACHN renal) was > 100 µM. The GI50 (A549 NSCLC) was > 100 µM, the TGI (A549 NSCLC) was > 100 µM and the GI50 (HL-60(TB) leukemia) was 4.25 µM. For the same compound, the TGI (HL-60(TB) leukemia) was 8.46 µM, the GI50 (NCI-H460 NSCLC) was 5 µM and the TGI (NCI-H460 NSCLC) was > 100 µM. It also gave a GI50 (SK-MEL-5 melanoma) of 3.52 µM, a TGI (SK-MEL-5 melanoma) of 47 µM and a GI50 (NCI-H322M lung) of 42.9 µM. For the same compound, the TGI (NCI-H322M lung) was > 100 µM, the GI50 (K-562 leukemia) was 3.98 µM and the TGI (K-562 leukemia) was 21.2 µM. The GI50 (SK-OV-3 ovarian) was > 100 µM, the TGI (SK-OV-3 ovarian) was > 100 µM and the GI50 (HCC-2998 colon) was 5.29 µM. The TGI (HCC-2998 colon) was 34.7 µM, the GI50 (SNB-19 CNS) was 5.14 µM and the TGI (SNB-19 CNS) was > 100 µM.
